Measured values published in US10034879B2, “Substituted benzaldehyde compounds and methods for their use in increasing tissue oxygenation” (Global Blood Therapeutics, Inc., priority 2011, dated 2018).

target: T1, purified Hemoglobin S (HbS) (Homo sapiens, UniProt P68871+P69905, E7V); test: Oxygen equilibrium curves (OEC) in purified HbS, HEMOX analyzer, change in p50; assay type: biochemical; conditions: compound at 30 μM; 25 μM purified HbS
T1 construct: HbS was purified by a modified procedure; from tissue; host or cells: blood of homozygous sickle cell patients
Procedure: Oxygen equilibrium curves (OEC) in purified Hemoglobin S (HbS) were measured by the change in p50, the partial pressure of oxygen at which the heme binding sites in the HbS sample are 50% saturated with oxygen. HbS was purified by a modified procedure (Antonini and Brunori, 1971; Heomoglobin and Myoglobin in their Reactions with Ligands; North Holland Publishing Company; Amsterdam, London) from blood obtained from homozygous sickle cell patients though the Hemoglobinopathy Center at Children's Hospital Oakland Research Institute (CHORI) with Institutional Review Board approval. Oxygen equilibrium curves were carried out with a HEMOX analyzer, (TCS Scientific, New Hope, Pa.). Five hundred μL of 250 μM purified HbS were diluted into 4.5 mL of HEMOX buffer (30 mM TES, 130 mM NaCl, 5 mM KCl, pH=7.4) resulting in a final hemoglobin concentration of 25 μM. The compounds were added at the final desired concentrations. The mixture was incubated for 45 min at 37° C. and then transferred to the Hemox sample chamber. The samples were saturated with oxygen by flushing with compressed air for 10 minutes. The samples were then flushed with pure nitrogen and the absorbance of deoxy-Hb was recorded as a function of the solution pO2. The oxygen equilibrium data was then fit to the Hill Model to obtain values for p50. The deoxygenation curves for both HbS alone (control) and HbS in the presence of compound were collected with the TCS software. The p50 for purified Hbs was typically 13.8±1.6. Delta p50 values were obtained from the p50 value for control minus the p50 value for HbS treated with compound divided by the p50 value for the control.
The compounds of Table 1 that were where tested in the assay above were all found to have positive delta p50 values. Delta p50% is calculated from [[p50(HbS)−p50(HbS treated with compound)]/p50(HbS)]×100. Table 2 below lists the delta p50% values where + indicates a delta p50% of between 0 and 29 and ++ indicates a delta p50% of 30 or greater. Unless noted otherwise, the compounds in Table 2 were tested at 30 μM.

Row | SMILES | delta p50
1 | O=Cc1ccccc1C(=O)Nc1cccn2ccnc12 [Compound 40, 2-formyl-N-(imidazo[1,2-a]pyridin-8-yl)benzamide] | + (+ indicates a delta p50% of between 0 and 29)
2 | COc1ccc(OCc2ccn3ccnc3c2)c(C=O)c1 [Compound 8, 2-(imidazo[1,2-a]pyridin-7-ylmethoxy)-5-methoxybenzaldehyde] | + (+ indicates a delta p50% of between 0 and 29)
3 | COc1ccc(OCc2cn3cccc(C)c3n2)c(C=O)c1 [Compound 24, 5-methoxy-2-((8-methylimidazo[1,2-a]pyridin-2-yl)methoxy)benzaldehyde] | ++ (++ indicates a delta p50% of 30 or greater)
4 | COc1ccc(OCc2cccn3ccnc23)c(C=O)c1 [Compound 1, 2-(imidazo[1,2-a]pyridin-8-ylmethoxy)-5-methoxybenzaldehyde] | ++ (++ indicates a delta p50% of 30 or greater)
5 | O=Cc1ccc(F)cc1OCc1cccn2ccnc12 [Compound 14, 4-fluoro-2-(imidazo[1,2-a]pyridin-8-ylmethoxy)benzaldehyde] | + (+ indicates a delta p50% of between 0 and 29)
6 | COc1ccc(OCc2cnc3ccccn23)c(C=O)c1 [Compound 9, 2-(imidazo[1,2-a]pyridin-3-ylmethoxy)-5-methoxybenzaldehyde] | + (+ indicates a delta p50% of between 0 and 29)
7 | Cc1ccc(OCc2cccn3ccnc23)c(C=O)c1 [Compound 16, 2-(imidazo[1,2-a]pyridin-8-ylmethoxy)-5-methylbenzaldehyde] | + (+ indicates a delta p50% of between 0 and 29)
8 | COc1ccc(OCc2cccc3nccn23)c(C=O)c1 [Compound 37, 2-(imidazo[1,2-a]pyridin-5-ylmethoxy)-5-methoxybenzaldehyde] | + (+ indicates a delta p50% of between 0 and 29)
9 | COc1ccc(OCc2cccn3cncc23)c(C=O)c1 [Compound 7, 2-(imidazo[1,5-a]pyridin-8-ylmethoxy)-5-methoxybenzaldehyde] | ++ (++ indicates a delta p50% of 30 or greater)
10 | O=Cc1cc(Br)ccc1OCc1cccn2ccnc12 [Compound 11, 5-bromo-2-(imidazo[1,2-a]pyridin-8-ylmethoxy)benzaldehyde] | + (+ indicates a delta p50% of between 0 and 29)
11 | COc1ccc(OCc2cn3ccccc3n2)c(C=O)c1 [Compound 5, 2-(imidazo[1,2-a]pyridin-2-ylmethoxy)-5-methoxybenzaldehyde] | ++ (++ indicates a delta p50% of 30 or greater)
12 | N#Cc1ccc(OCc2cccn3ccnc23)c(C=O)c1 [Compound 35, 3-formyl-4-(imidazo[1,2-a]pyridin-8-ylmethoxy)benzonitrile] | + (+ indicates a delta p50% of between 0 and 29)
13 | COc1ccc(OCc2ccc3nccn3c2)c(C=O)c1 [Compound 4, 2-(imidazo[1,2-a]pyridin-6-ylmethoxy)-5-methoxybenzaldehyde] | + (+ indicates a delta p50% of between 0 and 29)
14 | N#Cc1ccc(C=O)c(OCc2cccn3ccnc23)c1 [Compound 2, 4-formyl-3-(imidazo[1,2-a]pyridin-8-ylmethoxy)benzonitrile] | + (+ indicates a delta p50% of between 0 and 29)
15 | O=Cc1ccccc1OCc1cccn2ccnc12 [Compound 13, 2-(imidazo[1,2-a]pyridin-8-ylmethoxy)benzaldehyde] | + (+ indicates a delta p50% of between 0 and 29)
16 | COc1ccc(OCc2ccc3cncn3c2)c(C=O)c1 [Compound 34, 2-(imidazo[1,5-a]pyridin-6-ylmethoxy)-5-methoxybenzaldehyde] | + (+ indicates a delta p50% of between 0 and 29)
17 | COc1ccc(OCc2cccc3[nH]ncc23)c(C=O)c1 [Compound 25, 2-((1H-indazol-4-yl)methoxy)-5-methoxybenzaldehyde] | ++ (++ indicates a delta p50% of 30 or greater)
18 | COc1ccc(OCc2cccc3ncccc23)c(C=O)c1 [Compound 10, 5-methoxy-2-(quinolin-5-ylmethoxy)benzaldehyde] | ++ (++ indicates a delta p50% of 30 or greater)
19 | COc1ccc(OCc2cccc3c2cnn3C)c(C=O)c1 [Compound 23, 5-methoxy-2-((1-methyl-1H-indazol-4-yl)methoxy)benzaldehyde] | ++ (++ indicates a delta p50% of 30 or greater)

same assay, conditions: compound at 100 μM; 25 μM purified HbS

Row | SMILES | delta p50
20 | O=Cc1ccccc1NC(=O)c1cccn2ccnc12 [Compound 39, N-(2-formylphenyl)imidazo[1,2-a]pyridine-8-carboxamide] | + (100 μM) (+ indicates a delta p50% of between 0 and 29)
21 | COc1ccc(NC(=O)c2cccn3ccnc23)c(C=O)c1 [Compound 38, N-(2-formyl-4-methoxyphenyl)imidazo[1,2-a]pyridine-8-carboxamide] | ++ (100 μM) (++ indicates a delta p50% of 30 or greater)
22 | COc1cccc(C=O)c1OCc1cccn2ccnc12 [Compound 15, 2-(imidazo[1,2-a]pyridin-8-ylmethoxy)-3-methoxybenzaldehyde] | + (100 μM) (+ indicates a delta p50% of between 0 and 29)
23 | COc1ccc(OCc2ccc3cnccn23)c(C=O)c1 [Compound 33, 5-methoxy-2-(pyrrolo[1,2-a]pyrazin-6-ylmethoxy)benzaldehyde] | + (100 μM) (+ indicates a delta p50% of between 0 and 29)
24 | COc1ccc(OCc2ccnc3[nH]ccc23)c(C=O)c1 [Compound 21, 2-((1H-pyrrolo[2,3-b]pyridin-4-yl)methoxy)-5-methoxybenzaldehyde] | + (100 μM) (+ indicates a delta p50% of between 0 and 29)
25 | COc1ccc(C=O)c(OCc2cccn3cncc23)c1 [Compound 6, 2-(imidazo[1,5-a]pyridin-8-ylmethoxy)-4-methoxybenzaldehyde] | + (100 μM) (+ indicates a delta p50% of between 0 and 29)
26 | O=Cc1ccc(Cl)cc1OCc1cccn2ccnc12 [Compound 12, 4-chloro-2-(imidazo[1,2-a]pyridin-8-ylmethoxy)benzaldehyde] | + (100 μM) (+ indicates a delta p50% of between 0 and 29)
27 | COc1ccc(C=O)c(OCc2cccn3ccnc23)c1 [Compound 3, 2-(imidazo[1,2-a]pyridin-8-ylmethoxy)-4-methoxybenzaldehyde] | + (100 μM) (+ indicates a delta p50% of between 0 and 29)

target: T2, HbS/A (Homo sapiens, UniProt P68871+P69905, E7V); test: Relaxed-to-tense transition assay (R/T assay); assay type: biochemical; conditions: compound at 9 μM; 3 μM HbS/A
T2 construct: A mixture of HbS/A was purified from blood; from tissue; host or cells: blood of homozygous sickle cell patients
Procedure: A relaxed-to-tense transition assay (“R/T assay”) was used to determine the ability of substituted benzaldehyde compounds to maintain the high-oxygen affinity relaxed (R) state of hemoglobin under deoxygenated conditions. This ability can be expressed as a “delta R” value (i.e., the change in the time-period of the R state after hemoglobin is treated with a compound, as compared to the period without treatment with the compound). Delta R is the % R to remaining after the compounds treatment compared with no treatment (e.g. if R % without treatment is 8% while with treatment with a target compound is 48% R at 30 μM, then % R is 40% for that compound.
A mixture of HbS/A was purified from blood obtained from homozygous sickle cell patients though the Hemoglobinopathy Center at Children's Hospital Oakland Research Institute (CHORI) with Institutional Review Board approval. HbS/A (at a final concentration of 3 μM) was incubated for 1 hr at 37° C. in presence or absence of compounds in […] potassium phosphate buffer, pH=7.4 and 30 μM 2, 3 diphosphoglycerate (DPG) in 96 well plates in a final volume of 160 μl. Compounds were added at different concentrations (3 μM to 100 μM final concentrations). Plates were covered with a Mylar film. After incubation was completed the Mylar cover was removed and the plates were placed in a Spectrostar Nano plate reader previously heated at 37° C. Five minutes later, N2 (flow rate=20 L/min) was flowed through the spectrophotometer. Spectroscopic measurements (300 nm to 700 nm) were taken every 5 min for 2 hours. Data analysis was performed by using linear regression from the data retrieved for all wavelengths.
Table 4 below lists the delta R values where + indicates a delta R of between 0 and 30, ++ indicates a delta R of between 30 and 50, and +++ indicates a delta R of 50 or greater. Unless noted otherwise, the compounds in Table 2 were tested at 9 μM.

Row | SMILES | delta R (%)
28 | COc1ccc(OCc2cccnc2)c(C=O)c1 [Compound 41, 5-methoxy-2-(pyridin-3-ylmethoxy)benzaldehyde] | + (+ indicates a delta R of between 0 and 30)
29 | COc1ccc(OCc2cn3cccc(C)c3n2)c(C=O)c1 [Compound 24, 5-methoxy-2-((8-methylimidazo[1,2-a]pyridin-2-yl)methoxy)benzaldehyde] | + (+ indicates a delta R of between 0 and 30)
30 | COc1ccc(OCc2cn3ccccc3n2)c(C=O)c1 [Compound 5, 2-(imidazo[1,2-a]pyridin-2-ylmethoxy)-5-methoxybenzaldehyde] | ++ (++ indicates a delta R of between 30 and 50)
31 | COc1ccc(OCc2cccc3[nH]ncc23)c(C=O)c1 [Compound 25, 2-((1H-indazol-4-yl)methoxy)-5-methoxybenzaldehyde] | ++ (++ indicates a delta R of between 30 and 50)
32 | COc1ccc(OCc2cccc3ncccc23)c(C=O)c1 [Compound 10, 5-methoxy-2-(quinolin-5-ylmethoxy)benzaldehyde] | ++ (++ indicates a delta R of between 30 and 50)
